Experimental data: patent US8003615B2, “Stable vitamin B6 derivative” (Daiichi Fine Chemical Co., Ltd., priority 2003, dated 2011)

What was measured:
[1] = Light stability in a dog food; type: physicochemical
Procedure: A vitamin B6 derivative (0.1 g) was added to wheat flour (10 g), and uniformly mixed. The mixture was further successively added with breast meat of chicken (40.0 g), soybean protein (30.0 g), glucose (5.0 g), citric acid (0.001 g), sodium chloride (1.0 g), copper sulfate (0.01 g), iron sulfate (0.01 g), sorbic acid (0.3 g), and propylene glycol (5.0 g), and uniformly mixed. The mixture was made 100 g with purified water, and uniformly mixed to prepare dog food.
The prepared dog food in an amount of 5 g was put into a petri dish, and exposed to light of a D65 fluorescent lamp at a total illumination of 0, 60,000, 180,000, or 300,000 lux·hr, and then the vitamin B6 derivative was quantified by the HPLC method in the same manner as in Test Example 11 mentioned above.

[2] = type: physicochemical; settings: 0.5% (w/v) aqueous solution, D65 fluorescent lamp 13,000 Lx
Procedure: A 0.5% (w/v) aqueous solution of pyridoxine 3-β-D-glucoside (pH 6.7) in a volume of 0.3 ml was enclosed in a 1-ml volume glass ampoule, and irradiated with a D65 fluorescent lamp (Toshiba) for 14 days. The irradiation was performed at room temperature with an illumination of 13,000 Lx. Samples before the irradiation and after 1 day, 7 days and 14 days of the irradiation were analyzed by HPLC to measure a pyridoxine 3-β-D-glucoside content. A solution of pyridoxine hydrochloride of the same concentration (adjusted to pH 6.7) was treated in the same manner, and the results were compared. The HPLC measurement conditions were as follows.
Column: Inertsil ODS-3 ([…], ([…], φ4.6×150 mm, GL Science Inc.)
Eluent acetonitrile:0.1% (v/v) trifluoroacetic acid, 5 mM sodium 1-hexanesulfonate=1:9
Column temperature: 40° C.
Aqueous solutions (0.5% (w/v)) of pyridoxine 3-β-D-glucoside hydrochloride, pyridoxal 3-β-D-glucoside, pyridoxamine 3-β-D-glucoside, pyridoxine 3-β-D-galactoside, and pyridoxine hydrochloride (adjusted to pH 6.3 to 7.2 with HCl or NaOH) were each sealed in a volume of 0.3 ml in a 1-ml volume glass ampoule, and light irradiation and HPLC quantification were performed in the same manner as in Test Example 1. […] Test Example 4 (thermal stability of pyridoxine 3-β-D-glucoside hydrochloride and various 3-glycosides) […]

[3] = Light stability in an eye lotion; type: physicochemical
Procedure: Neostigmine methylsulfate (5 mg), potassium L-aspartate (0.4 g), boric acid (5 mg), sodium borate (5 mg), methyl paraoxybenzoate (10 mg), chlorobutanol (0.1 g), and vitamin B6 derivative (0.1 g) were dissolved in sterilized purified water (70 ml). After dissolution, the solution was made into a volume of 100 ml with sterilized purified water to prepare an eye lotion. In this preparation, precipitates and the like were not observed. The prepared eye lotion in a volume of 6 ml was put into a glass bottle, and exposed to light of a D65 fluorescent lamp at a total illumination of 0, 60,000, 180,000, or 300,000 lux·hr, and then the vitamin B6 derivative was quantified by the HPLC method in the same manner as in Test Example 11 mentioned above.

[4] = D65 fluorescent lamp, 180,000 lux·hr for 3 days
[5] = D65 fluorescent lamp, 300,000 lux·hr for 5 days

With `Cc1ncc(CO)c(CO)c1O.Cl` [pyridoxine hydrochloride] the “remained substance in dog food after irradiation” value [1, 4] was 90%, the “remained substance in dog food after irradiation” value [1, 5] was 85% and the “coloring of the aqueous solution after the light irradiation” value [2] was “colored in pale yellow”. For the same molecule, the “remained substance in eye lotion after irradiation” value [3, 4] was 68% and the “remained substance in eye lotion after irradiation” value [3, 5] was 49%.
